Assay results from patent US20130240456A1, “DEVICE AND METHOD FOR LABEL-FREE SEPARATION OF MATERIAL USING MAGNETIC FIELD” (THE GOVERNING COUNCIL OF THE UNIVERSITY OF TORONTO, priority 2012, published 2013).

Legend:
neonatal rat CM [1] = conditions: horizontal device study
Description: Cell viability was determined immediately after treatment. In addition, the cells were cultivated in 3D for 7 days as described below.
Live/dead staining was performed by incubating the cells or constructs in a solution of carboxyfluorescein diacetate-succinimidyl ester (CFDA-SE, 10 μM, from Molecular Probes) and propidium iodide (PI, 2.5 μg/mL, from Molecular Probes) for 30-45 minutes at 37° C., according to the manufacturer's protocol (from Molecular Probes, Burlington, Canada). The cells were imaged using a fluorescent microscope (Leica DMIRE2, from Wetzlar, Germany). […] Following treatment, the cells were washed in HBSS, and incubated for 5 hrs in 37° C./5% CO2 incubator. Non-viable cells with compromised cell membranes could be identified by red fluorescence due to binding of PI to their nuclei, while viable cells converted CFDA-SE to the green fluorescent dye […] by esterase-mediated cleavage.
Live/dead staining was performed by incubating the cells or constructs in a solution of carboxyfluorescein diacetate-succinimidyl ester (CFDA-SE, 10 μM, from Molecular Probes) and propidium iodide (PI, 2.5 μg/mL, from Molecular Probes) for 30-45 minutes at 37° C., according to the manufacturer's protocol (from Molecular Probes, Burlington, Canada). The cells were imaged using a fluorescent microscope (Leica DMIRE2, from Wetzlar, Germany). […]

myoglobin [2] = target: myoglobin (Rattus norvegicus, UniProt Q9QZ76)
Description: (§1) UV-vis measurements were made in cells lysed with NP40 Lysis Buffer, for 30 min on ice, with cell debris spun down at 13000 rpm for 10 min at 4° C. […] ND-1000 Nanodrop spectrophotometer (from Nanodrop Technologies, Inc., Wilmington, Del., USA) was used to collect absorption spectra from 200-700 nm.

myoglobin [3] = target: myoglobin (Mus musculus, UniProt P04247); conditions: 2.5 mM NaNO2, ratio of absorbance 635 nm/525 nm
Description: as §1

neonatal rat CM [4] = conditions: constructs of treated and control cells, no significant differences
Description: Contractile properties of CMs were measured by field stimulation in an electrical stimulation chamber consisting of two parallel carbon electrodes spaced 1 cm apart as described in [24]. Stimulation was provided by an external electric stimulator (Grass s88x). Using monophasic pulses of 2 ms duration and frequency of 1 pulse per second, the excitation threshold (minimum voltage at which synchronous contractions of 75% of the tissue in the field of view can be observed) was first determined. Then the maximum capture rate (maximum beating frequency) was determined at 200% of the determined excitation threshold voltage.

adult mouse CM = conditions: 2.5 mM NaNO2, versus untreated, unseparated control
Description: Adult mouse CMs were isolated and suspended in Kraft Bruhe (KB) solution at 4° C. The KB solution consisted of 120 mM K-glutamate, 10 mM KCl, 10 mM KH2PO4, 2 mM MgSO4.7H2O, 10 mM Taurine, 5 mM Creatine, 10 mM HEPES, 10 mM Glucose, 0.5 mM EGTA, 0.10% Bovine Serum Albumin (BSA) and a final pH of 7.3 adjusted with KOH. The adult mouse CMs in KB solution were then split into three groups. Each of these three KB solutions containing adult mouse CMs was then further split into four groups; in total, 12 groups of adult mouse CMs in KB solution were maintained at 4° C. and allowed to settle to the bottom of Eppendorf tubes.
The Eppendorf containing KB Solution and adult mouse CMs was left untouched. The other three Eppendorf tubes had the KB solution removed. […] The four Eppendorf tubes were then returned to 4° C. environment to allow the cells settle.
The other three Eppendorf tubes containing adult mouse CMs in the three other solutions were left at room temperature while the device was running.
At the end of the sorting process, each of the Eppendorf tubes that had been sitting at room temperature were equally split into 24-well plate wells. The sorted run was emptied into one well. An equal volume of trypan blue was added to each well. After a minute, 1 mL of either KB or HBSS and 30% FBS was added to each of the wells depending on the group. […]

Chain of myoglobin (Rattus norvegicus, UniProt Q9QZ76) (Q9QZ76 whole entry): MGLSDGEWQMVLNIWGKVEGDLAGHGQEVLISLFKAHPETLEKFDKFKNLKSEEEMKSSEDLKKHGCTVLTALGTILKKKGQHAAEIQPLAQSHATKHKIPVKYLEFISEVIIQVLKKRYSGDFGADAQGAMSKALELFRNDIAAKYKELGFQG
Chain of myoglobin (Mus musculus, UniProt P04247) (P04247 whole entry): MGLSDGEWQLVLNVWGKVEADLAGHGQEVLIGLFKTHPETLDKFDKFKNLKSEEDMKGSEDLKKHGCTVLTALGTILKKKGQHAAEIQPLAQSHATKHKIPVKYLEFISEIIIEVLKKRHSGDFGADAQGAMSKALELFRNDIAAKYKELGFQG

O=NO [NaNO2, sodium nitrite]
viability of CMs after treatment with NaNO2 (FIGS. 23A and 23B) (neonatal rat CM [1]): unaffected | conversion of Mb to metMb (myoglobin [2]; 50 mM NaNO2, 30 min, referencing to the 1 hr time point): 92±3.5% | time at which metMb induction reached the equilibrium value (myoglobin [2]; 50 mM NaNO2, transient study): 30 min | semi-quantitative fold conversion to metMb (myoglobin [2]; 50 mM NaNO2, transient study, stabilized value): about 10 times the initial metMb amount | time of maximum metmyoglobin induction after nitrite was introduced (myoglobin [3]): about 45 min | excitation threshold (ET) (neonatal rat CM [4]): about 4.5±1.3 V/cm | maximum capture rate (MCR) (neonatal rat CM [4]): about 8.3±1.0 pps | viability of adult mouse CM after separation and subsequent culture for 24 hr (adult mouse CM): not compromised
